Reference: patent publication US20260146035A1, “FUSED BICYCLIC COMPOUNDS AND THEIR USE AS MER AND AXL INHIBITORS” (DONG-A ST CO., LTD., priority 2022, published 2026)

Columns and labels:
human MER (528-end) = molecular target: T1, human MER (528-end) (Homo sapiens, UniProt Q12866); test: HTRF kinase activity biochemical assay, MER; conditions: 10 μM ATP, 30 minutes pre-incubation; read-out: HTRF MERTK IC50
T1 construct: human MER (528-end); purchased Camnabio, Japan
T1 sequence (Q12866 528-999 limits assumed): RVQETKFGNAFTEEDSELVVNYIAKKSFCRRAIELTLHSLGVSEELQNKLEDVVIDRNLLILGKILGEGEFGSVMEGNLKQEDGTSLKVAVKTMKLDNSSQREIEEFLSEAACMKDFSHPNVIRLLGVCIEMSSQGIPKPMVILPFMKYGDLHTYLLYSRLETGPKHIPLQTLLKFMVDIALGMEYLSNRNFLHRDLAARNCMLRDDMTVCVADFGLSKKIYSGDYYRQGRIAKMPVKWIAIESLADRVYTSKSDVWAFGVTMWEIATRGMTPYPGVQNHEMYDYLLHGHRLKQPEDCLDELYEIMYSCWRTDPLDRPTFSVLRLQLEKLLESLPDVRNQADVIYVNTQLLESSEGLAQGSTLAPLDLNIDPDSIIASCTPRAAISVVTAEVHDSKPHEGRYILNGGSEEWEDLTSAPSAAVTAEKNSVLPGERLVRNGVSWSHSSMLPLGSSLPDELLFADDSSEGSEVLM

human AXL (473-end) = molecular target: T2, human AXL (473-end) (Homo sapiens, UniProt P30530); test: HTRF kinase activity biochemical assay, AXL; conditions: 10 μM ATP, 30 minutes pre-incubation
T2 construct: human AXL (473-end); purchased SignalChem, Canada
T2 sequence (P30530 473-894 limits assumed): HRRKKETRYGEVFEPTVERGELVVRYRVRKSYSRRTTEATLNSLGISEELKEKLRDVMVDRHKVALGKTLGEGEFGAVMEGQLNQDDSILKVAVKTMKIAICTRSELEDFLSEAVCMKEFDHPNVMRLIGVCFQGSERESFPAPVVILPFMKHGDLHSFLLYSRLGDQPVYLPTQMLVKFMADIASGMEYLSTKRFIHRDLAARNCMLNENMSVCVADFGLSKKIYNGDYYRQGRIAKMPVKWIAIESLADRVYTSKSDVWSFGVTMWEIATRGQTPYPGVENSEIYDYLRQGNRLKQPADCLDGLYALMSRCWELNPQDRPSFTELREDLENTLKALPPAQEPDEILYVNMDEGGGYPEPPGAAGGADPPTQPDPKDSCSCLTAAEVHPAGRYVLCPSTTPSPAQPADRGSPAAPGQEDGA

human TYRO3 (455-end) = molecular target: T3, human TYRO3 (455-end) (Homo sapiens, UniProt Q06418); test: HTRF kinase activity biochemical assay, TYRO3; conditions: 10 μM ATP, 30 minutes pre-incubation; read-out: HTRF TYRO IC50
T3 construct: TYRO3 (455-end); purchased SignalChem, Canada
T3 sequence (Q06418 455-890 limits assumed): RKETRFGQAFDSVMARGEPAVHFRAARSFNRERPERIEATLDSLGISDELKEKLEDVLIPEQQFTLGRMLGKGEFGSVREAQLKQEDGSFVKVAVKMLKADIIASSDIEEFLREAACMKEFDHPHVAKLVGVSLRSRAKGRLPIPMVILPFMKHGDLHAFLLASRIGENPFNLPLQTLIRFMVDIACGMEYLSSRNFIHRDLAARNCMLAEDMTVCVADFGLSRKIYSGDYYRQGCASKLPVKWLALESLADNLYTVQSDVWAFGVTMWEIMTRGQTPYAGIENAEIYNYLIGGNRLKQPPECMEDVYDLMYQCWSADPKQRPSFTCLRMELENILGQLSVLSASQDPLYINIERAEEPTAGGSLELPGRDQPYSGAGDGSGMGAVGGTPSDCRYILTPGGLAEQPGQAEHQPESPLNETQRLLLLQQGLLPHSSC

| Compound | IC50 (human MER (528-end)) [nM] | IC50 (human AXL (473-end)) [nM] | IC50 (human TYRO3 (455-end)) [nM] |
| --- | --- | --- | --- |
| Cn1cc(-c2cnc(N)c(C(=O)N[C@H]3CCC[C@@H]3OCc3ccc(-c4ccc5c(c4)ncn5C4CCN(CCO)CC4)cc3)c2)cn1 [Example 156, 2-amino-N-{(1S,2S)-2-[(4-{1-[1-(2-hydroxyethyl)piperidin-4-yl]-1H-benzimidazol-5-yl}phenyl)methoxy]cyclopentyl}-5-(1-methyl-1H-pyrazol-4-yl)pyridine-3-carboxamide] | 100 to 1000 | > 1000 | > 1000 |
| Cn1cc(-c2cnc(N)c(C(=O)N[C@H]3CCC[C@@H]3OCc3ccc(-c4ccc5[nH]c(C(F)(F)F)cc5c4)cc3)c2)cn1 [Example 53, 2-amino-5-(1-methyl-1H-pyrazol-4-yl)-N-[(1S,2S)-2-({4-[2-(trifluoromethyl)-1H-indol-5-yl]phenyl}methoxy)cyclopentyl]pyridine-3-carboxamide] | 100 to 1000 | 100 to 1000 | > 1000 |
| Cn1cc(-c2cnc(N)c(C(=O)N[C@H]3CCC[C@@H]3OCc3ccc(-c4ccc5c(c4)CC(F)(F)[C@@H]5N4CCN(CCO)CC4)cc3)c2)cn1 [Example 65, 2-amino-N-{(1S,2S)-2-[(4-{(1R)-2,2-difluoro-1-[4-(2-hydroxyethyl)piperazin-1-yl]-2,3-dihydro-1H-inden-5-yl}phenyl)methoxy]cyclopentyl}-5-(1-methyl-1H-pyrazol-4-yl)pyridine-3-carboxamide] | < 10 | < 10 | 100 to 1000 |
| CN1CC(C)(C)c2cc(-c3ccc(CO[C@H]4CCC[C@@H]4NC(=O)c4cc(-c5cnn(C)c5)cnc4N)cc3)ccc21 [Example 17, 2-amino-5-(1-methyl-1H-pyrazol-4-yl)-N-[(1S,2S)-2-{[4-(1,3,3-trimethyl-2,3-dihydro-1H-indol-5-yl)phenyl]methoxy}cyclopentyl]pyridine-3-carboxamide] | 10 to 100 | 10 to 100 | > 1000 |
| COc1ccnc(N)c1C(=O)N[C@H]1CCC[C@@H]1OCc1ccc(-c2ccc3c(c2)C(C)(C)CC3N2CCN(CCO)CC2)cc1 (stereo partly drawn) [Example 136, 2-amino-N-{(1S,2S)-2-[(4-{1-[4-(2-hydroxyethyl)piperazin-1-yl]-3,3-dimethyl-2,3-dihydro-1H-inden-5-yl}phenyl)methoxy]cyclopentyl}-4-methoxypyridine-3-carboxamide] | < 10 | < 10 | 100 to 1000 |
| CC1(C)CC(N2CCN(CCO)CC2)c2ccc(-c3ccc(CO[C@H]4CCC[C@@H]4NC(=O)c4cc(-c5cccnc5F)cnc4N)cc3)cc21 (stereo partly drawn) [Example 119, 6-amino-2′-fluoro-N-{(1S,2S)-2-[(4-{1-[4-(2-hydroxyethyl)piperazin-1-yl]-3,3-dimethyl-2,3-dihydro-1H-inden-5-yl}phenyl)methoxy]cyclopentyl}[3,3′-bipyridine]-5-carboxamide] | < 10 | < 10 | 10 to 100 |
| Nc1ncc(C(F)(F)F)cc1C(=O)N[C@H]1CCC[C@@H]1OCc1ccc(-c2ccc3c(c2)CC[C@@H]3N2CCN(CCO)CC2)cc1 [Example 131, 2-amino-N-{(1S,2S)-2-[(4-{(1S)-1-[4-(2-hydroxyethyl)piperazin-1-yl]-2,3-dihydro-1H-inden-5-yl}phenyl)methoxy]cyclopentyl}-5-(trifluoromethyl)pyridine-3-carboxamide] | < 10 | < 10 | 100 to 1000 |

The remaining lines, values ahead:

| IC50 (human MER (528-end)) [nM] | IC50 (human AXL (473-end)) [nM] | IC50 (human TYRO3 (455-end)) [nM] | Compound |
| --- | --- | --- | --- |
| < 10 | < 10 | 10 to 100 | Cn1cc(-c2cnc(N)c(C(=O)N[C@H]3CCC[C@@H]3OCc3ccc(-c4ccc5c(c4)CCC[C@@H]5N4CCNCC4)cc3)c2)cn1 [Example 141, 2-amino-5-(1-methyl-1H-pyrazol-4-yl)-N-[(1S,2S)-2-({4-[(5S)-5-(piperazin-1-yl)-5,6,7,8-tetrahydronaphthalen-2-yl]phenyl}methoxy)cyclopentyl]pyridine-3-carboxamide] |
| < 10 | 10 to 100 | 100 to 1000 | Cn1cc(-c2cnc(N)c(C(=O)N[C@H]3CCC[C@@H]3OCc3ccc(-c4ccc5c(c4)C(C)(C)CN5C4CCN(CC(N)=O)CC4)cc3)c2)cn1 [Example 27, 2-amino-N-{(1S,2S)-2-[(4-{1-[1-(2-amino-2-oxoethyl)piperidin-4-yl]-3,3-dimethyl-2,3-dihydro-1H-indol-5-yl}phenyl)methoxy]cyclopentyl}-5-(1-methyl-1H-pyrazol-4-yl)pyridine-3-carboxamide] |
| < 10 | < 10 | 100 to 1000 | COc1ccnc(N)c1C(=O)N[C@H]1CCC[C@@H]1OCc1ccc(-c2ccc3c(c2)CC[C@@H]3N2CCN(C)CC2)cc1 [Example 139, 2-amino-4-methoxy-N-[(1S,2S)-2-({4-[(1S)-1-(4-methylpiperazin-1-yl)-2,3-dihydro-1H-inden-5-yl]phenyl}methoxy)cyclopentyl]pyridine-3-carboxamide] |
| < 10 | < 10 | < 10 | CC1(C)C[C@H](N2CCN(CCO)CC2)c2ccc(-c3ccc(CO[C@H]4CCC[C@@H]4NC(=O)c4cc(-c5ccc(F)nc5)cnc4N)cc3)cc21 [Example 104, 6-amino-6′-fluoro-N-{(1S,2S)-2-[(4-{(1S)-1-[4-(2-hydroxyethyl)piperazin-1-yl]-3,3-dimethyl-2,3-dihydro-1H-inden-5-yl}phenyl)methoxy]cyclopentyl}[3,3′-bipyridine]-5-carboxamide] |
| < 10 | < 10 | 100 to 1000 | CN1CCN([C@H]2CCc3cc(-c4ccc(CO[C@H]5CCC[C@@H]5NC(=O)c5cc(C(F)(F)F)cnc5N)cc4)ccc32)CC1 [Example 143, 2-amino-N-[(1S,2S)-2-({4-[(1S)-1-(4-methylpiperazin-1-yl)-2,3-dihydro-1H-inden-5-yl]phenyl}methoxy)cyclopentyl]-5-(trifluoromethyl)pyridine-3-carboxamide] |
| < 10 | < 10 | 100 to 1000 | COc1ccc(-c2cnc(N)c(C(=O)N[C@H]3CCC[C@@H]3OCc3ccc(-c4ccc5c(c4)CC[C@@H]5N4CCN(C)CC4)cc3)c2)cn1 [Example 152, 6-amino-6′-methoxy-N-[(1S,2S)-2-({4-[(1S)-1-(4-methylpiperazin-1-yl)-2,3-dihydro-1H-inden-5-yl]phenyl}methoxy)cyclopentyl][3,3′-bipyridine]-5-carboxamide] |
| < 10 | < 10 | 10 to 100 | Cn1cc(-c2cnc(N)c(C(=O)N[C@H]3CCC[C@@H]3OCc3ccc(-c4ccc5c(c4)CCCN5C4CCN(CCO)CC4)cc3)c2)cn1 [Example 112, 2-amino-N-{(1S,2S)-2-[(4-{1-[1-(2-hydroxyethyl)piperidin-4-yl]-1,2,3,4-tetrahydroquinolin-6-yl}phenyl)methoxy]cyclopentyl}-5-(1-methyl-1H-pyrazol-4-yl)pyridine-3-carboxamide] |
| < 10 | < 10 | > 1000 | Nc1ncc(-c2ccc(F)nc2)cc1C(=O)N[C@H]1CCC[C@@H]1OCc1ccc(-c2ccc3c(c2)C[C@H](F)[C@@H]3N2CCN(CCO)CC2)cc1 (relative stereo) [Example 89, 6-amino-6′-fluoro-N-{(1S,2S)-2-[(4-{(1R*,2S*)-2-fluoro-1-[4-(2-hydroxyethyl)piperazin-1-yl]-2,3-dihydro-1H-inden-5-yl}phenyl)methoxy]cyclopentyl}[3,3′-bipyridine]-5-carboxamide] |
